Measurements reported in patent US20110039763A1, “TARGETED ANTIMICROBIAL MOIETIES” (C3 JIAN, INC., priority 2009, published 2011).
Entries after “also recorded” stand apart in the source; their conditions may differ.

test system: microorganisms; assay: Targeting peptide binding to target microorganisms (Tables 3, 10, 12); details: peptide binding in aqueous buffers that varied with peptide solubility; preferably 1x PBS
Source text: In certain embodiments, the targeting moiety comprises one or more targeting peptides that bind particular bacteria, fungi, and/or yeasts, and/or algae, and/or viruses and/or that bind particular groups of bacteria, and/or groups of fungi, and/or groups of yeasts, and/or groups of algae.
In certain embodiments the targeting peptides include peptides comprising or consisting of one or more of the amino acid sequences shown in Table 3 (SEQ ID NOs:13-1566). In various embodiments the peptides include peptides comprising or consisting of the retro, inverso, retro-inverso, and/or beta form of one or more of the amino acid sequences shown in Table 3. Also contemplated are circular permutations of these sequences as well as peptides comprising or consisting of the retro, inverso, retro-inverso, and/or beta form of such circular permutations.
In certain embodiments the targeting peptide can comprise one or more domains capable of binding, specifically binding, or preferentially binding to a microorganism, e.g., a target microbial organism (see, e.g., Table 3). In certain embodiment, the targeting peptide be identified via screening peptide libraries. For example, a phage display peptide library can be screened against a target microbial organism or a desired antigen or epitope thereof. Any peptide identified through such screening can be used as a targeting peptide for the target microbial organism.

Row | Substance | Target(s) (microorganism bound by the targeting peptide)
1 | 1T-32 (VSFLAGWLCLGLAAWRLGNA; Peptide with targeting and/or antimicrobial activity) | S. mutans
2 | 1T-33 (VRTLTILVIFIFNYLKSISYKLKQPFENNLAQSMISI; Peptide with targeting and/or antimicrobial activity) | S. aureus; also recorded: S. epidermidis; also recorded: C. jeikeium; also recorded: C. xerosis; also recorded: C. striatum; also recorded: P. aeruginosa
3 | 1T-34 (AFWLNILLTLLGYIPGIVHAVYIIAKR; Peptide with targeting and/or antimicrobial activity) | S. aureus; also recorded: S. epidermidis; also recorded: C. jeikeium; also recorded: C. xerosis; also recorded: C. striatum; also recorded: P. aeruginosa
4 | 1T-35 (EICLTLVFPIRGSYSEAAKFPVPIHIVEDGTVELPK; Peptide with targeting and/or antimicrobial activity) | P. aeruginosa
5 | 1T-36 (VYRHLRFIDGKLVEIRLERK; Peptide with targeting and/or antimicrobial activity) | S. aureus; also recorded: S. epidermidis; also recorded: C. jeikeium; also recorded: C. xerosis; also recorded: C. striatum; also recorded: P. aeruginosa
6 | 1T-37 (YIVGALVILAVAGLIYSMLRKA; Peptide with targeting and/or antimicrobial activity) | S. mutans; also recorded: S. aereus; also recorded: S. epidermidis; also recorded: C. jeikeium; also recorded: C. xerosis; also recorded: C. striatum; also recorded: P. aeruginosa
7 | 1T-38 (VMFVLTRGRSPRPMIPAY; Peptide with targeting and/or antimicrobial activity) | S. mutans; also recorded: S. aereus; also recorded: S. epidermidis; also recorded: C. jeikeium; also recorded: C. xerosis; also recorded: C. striatum; also recorded: P. aeruginosa
8 | 1T-39 (FGFCVWMYQLLAGPPGPPA; Peptide with targeting and/or antimicrobial activity) | S. mutans; also recorded: P. aeruginosa
9 | 1T-40 (QRVSLWSEVEHEFR; Peptide with targeting and/or antimicrobial activity) | S. mutans; also recorded: P. aeruginosa
10 | 1T-41 (KRGSKIVIAIAVVLIVLAGVWVW; Peptide with targeting and/or antimicrobial activity) | S. mutans; also recorded: S. aureus; also recorded: S. epidermidis; also recorded: C. jeikeium; also recorded: C. striatum; also recorded: P. aeruginosa
11 | 1T-42 (TVLDWLSLALATGLFVYLLVALLRADRA; Peptide with targeting and/or antimicrobial activity) | S. aureus; also recorded: S. epidermidis; also recorded: C. xerosis; also recorded: C. striatum; also recorded: P. aeruginosa
12 | 1T-43 (DRCLSVLSWSPPKVSPLI; Peptide with targeting and/or antimicrobial activity) | C. jeikium; also recorded: P. aeruginosa
13 | 1T-44 (DPALADFAAGMRAQVRT; Peptide with targeting and/or antimicrobial activity) | S. mutans; also recorded: S. aureus; also recorded: S. epidermidis; also recorded: C. jeikeium; also recorded: C. striatum; also recorded: P. aeruginosa
14 | 1T-45 (WTKPSFTDLRLGFEVTLYFANR; Peptide with targeting and/or antimicrobial activity) | S. aureus; also recorded: S. epidermidis; also recorded: C. striatum; also recorded: P. aeruginosa
15 | 1T-46 (FSFKQRVMFRKEVERLR; Peptide with targeting and/or antimicrobial activity) | S. aureus; also recorded: S. epidermidis; also recorded: C. jeikeium; also recorded: C. xerosis; also recorded: C. striatum; also recorded: P. aeruginosa
16 | 1T-47 (VIKISVPGQVQMLIP; Peptide with targeting and/or antimicrobial activity) | S. mutans; also recorded: S. epidermidis; also recorded: P. aeruginosa
17 | 1T-48 (KLQVHHGRATHTLLLQPPLCAPGTIR; Peptide with targeting and/or antimicrobial activity) | S. aureus; also recorded: S. epidermidis; also recorded: C. jeikeium; also recorded: C. xerosis; also recorded: C. striatum; also recorded: P. aeruginosa
18 | 1T-49 (SLVRIHDQQPWVTRGAFIDAARTCS; Peptide with targeting and/or antimicrobial activity) | S. aureus; also recorded: S. epidermidis; also recorded: C. jeikeium; also recorded: P. aeruginosa

Row | Substance | Target(s) (microorganism bound by the targeting peptide)
19 | 1T-50 (HSDEPIPNILFKSDSVH; Peptide with targeting and/or antimicrobial activity) | P. aeruginosa
20 | 1T-51 (GKPKRMPAEFIDGYGQALLAGA; Peptide with targeting and/or antimicrobial activity) | S. aureus; also recorded: P. aeruginosa
21 | 1T-52 (DEYPAKLPLSDKGATEPRRH; Peptide with targeting and/or antimicrobial activity) | S. aureus; also recorded: C. xerosis; also recorded: P. aeruginosa
22 | 1T-53 (SDILAEMFEKGELQTLVKDAAAKANA; Peptide with targeting and/or antimicrobial activity) | P. aeruginosa
23 | 1T-54 (RWVSCNPSWRIQ; Peptide with targeting and/or antimicrobial activity) | S. epidermidis; also recorded: C. xerosis; also recorded: C. striatum; also recorded: P. aeruginosa
24 | 1T-55 (NHKTLKEWKAKWGPEAVESWATLLG; Peptide with targeting and/or antimicrobial activity) | C. xerosis; also recorded: P. aeruginosa
25 | 1T-56 (LALIGAGIWMIRKG; Peptide with targeting and/or antimicrobial activity) | C. xerosis; also recorded: P. aeruginosa
26 | 1T-57 (RLEYRRLETQVEENPESGRRPMRG; Peptide with targeting and/or antimicrobial activity) | P. aeruginosa
27 | 1T-58 (CDDLHALERAGKLDALLSA; Peptide with targeting and/or antimicrobial activity) | P. aeruginosa
28 | 1T-59 (AVGNNLGKDNDSGHRGKKHRKHKHR; Peptide with targeting and/or antimicrobial activity) | S. aureus; also recorded: S. epidermidis; also recorded: P. aeruginosa
29 | 1T-60 (YLTSLGLDAAEQAQGLLTILKG; Peptide with targeting and/or antimicrobial activity) | S. aureus; also recorded: S. epidermidis; also recorded: C. jeikeium; also recorded: C. striatum; also recorded: P. aeruginosa
30 | 1T-61 (HATLLPAVREAISRQLLPALVPRG; Peptide with targeting and/or antimicrobial activity) | P. aeruginosa
31 | 1T-62 (GCKGCAQRDPCAEPEPYFRLR; Peptide with targeting and/or antimicrobial activity) | S. epidermidis; also recorded: P. aeruginosa
32 | 1T-63 (EPLILKELVRNLFLFCYARALR; Peptide with targeting and/or antimicrobial activity) | S. aureus; also recorded: S. epidermidis; also recorded: C. jeikeium; also recorded: C. xerosis; also recorded: C. striatum; also recorded: P. aeruginosa
33 | 1T-64 (QTVHHIHMHVLGQRQMHWPPG; Peptide with targeting and/or antimicrobial activity) | S. aureus; also recorded: S. epidermidis; also recorded: C. jeikeium; also recorded: C. xerosis; also recorded: C. striatum; also recorded: P. aeruginosa
34 | 1T-65 (HARAAVGVAELPRGAAVEVELIAAVRP; Peptide with targeting and/or antimicrobial activity) | S. mutans; also recorded: S. aureus; also recorded: S. epidermidis; also recorded: C. jeikeium; also recorded: C. xerosis; also recorded: C. striatum; also recorded: P. aeruginosa
35 | 1T-66 (DTDCLSRAYAQRIDELDKQYAGIDKPL; Peptide with targeting and/or antimicrobial activity) | S. mutans; also recorded: S. aureus; also recorded: S. epidermidis; also recorded: C. jeikeium; also recorded: C. xerosis; also recorded: C. striatum; also recorded: P. aeruginosa
36 | 1T-67 (GQRQRLTCGRVSGCSEGPSREAAR; Peptide with targeting and/or antimicrobial activity) | S. aureus; also recorded: S. epidermidis; also recorded: C. jeikeium; also recorded: C. xerosis; also recorded: C. striatum; also recorded: P. aeruginosa
